How the values were obtained:
ERK2 enzyme = ERK2 enzyme (Homo sapiens (Human), UniProt P28482); experiment: Inhibition assay of ERK (Z'-LYTE kinase assay, Ser/Thr 3 peptide substrate); assay type: biochemical; details: 100 μM ATP
[1] = tested on: phospho-RSK1 (Thr359/Ser363) in A375 (Braf V600E) cells; experiment: Phospho-p90 RSK ELISA using A375 (Braf V600E) cells; assay type: cell-based; details: Homo sapiens, A-375, 2 hours compound treatment, read-out: Cellular Phospho-p90RSK IC50
Description: In preparation for the assay, an ELISA plate with the pre-coated goat anti-mouse antibody (Thermo Scientific) was treated with a mouse anti-human RSK1 antibody (monoclonal, Invitrogen) at 1:800 dilution (150 ng/well) in PBS, and the plate was placed on a plate shaker at 4° C. overnight. […] After two hours of the compound treatment, the supernatant was removed from the cell plate, and cells were lysed in 100 μl per well of cell lysis buffer (Cell Signaling Technologies) containing phosphatase and protease inhibitors (Cell Signaling Technologies) on a plate shaker at 4° C. for 20 minutes. The ELISA plate was washed four times with ELISA wash buffer (Thermo Scientific) prior to addition of 100 μL cell lysate. The lysate was incubated on the ELISA plate with gentle shaking at room temperature for 2 hours. The contents of the wells were removed, and the ELISA plate was washed four times with wash buffer, and incubated with 100 μL per well of anti-phospho-RSK1 (Thr359/Ser363) rabbit monoclonal antibody (Millipore) at dilution of 1:1000 in StartingBlock buffer (Thermo Scientific) on a plate shaker at room temperature for 1 hour. The contents of the wells were removed, the ELISA plate was washed four times with wash buffer, and was incubated with 100 μL per well of goat anti-rabbit HRP (Thermo Scientific) at dilution of 1:3000 in StartingBlock buffer (Thermo Scientific) on a plate shaker at room temperature for 1 hour. The contents of the wells were removed, the ELISA plate was washed four times with wash buffer, and then incubated with 100 μL per well of TMB substrate solution (Thermo Scientific) on a plate shaker at room temperature for 20 minutes. Finally, 100 μL of TMB stop solution (Thermo Scientific) was added to each well and the absorbance is measured at 450 nm on a Tecan plate reader.

[2] = In vitro, ERK2 enzyme 0.47 ng/μL

ERK2 enzyme, sequence (P28482 whole entry): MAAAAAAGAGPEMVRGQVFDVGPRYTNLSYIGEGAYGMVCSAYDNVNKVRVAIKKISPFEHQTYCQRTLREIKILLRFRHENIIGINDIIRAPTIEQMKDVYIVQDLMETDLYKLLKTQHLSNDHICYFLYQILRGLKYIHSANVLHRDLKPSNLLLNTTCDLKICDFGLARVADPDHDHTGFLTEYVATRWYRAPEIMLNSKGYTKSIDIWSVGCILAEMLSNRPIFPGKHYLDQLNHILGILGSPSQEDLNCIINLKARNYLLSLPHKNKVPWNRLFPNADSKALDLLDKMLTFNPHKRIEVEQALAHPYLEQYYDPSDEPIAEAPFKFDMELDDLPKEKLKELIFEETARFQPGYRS

| IC50 (ERK2 enzyme; In vitro ERK2 enzyme) [nM] | IC50 [1] [nM] | IC50 (ERK2 enzyme; [2]) [nM] | Structure (SMILES) |
| --- | --- | --- | --- |
| < 50 | 250 to 1000 |  | Cc1cc(-c2n[nH]c3cc4c(cc23)CN([C@@H]2CCCN(C(=O)c3cccc(Cl)c3)C2)C(=O)N4)ccn1 [Compound 152] |
|  | 250 to 1000 | 50 to 250 | Cc1cc(-c2n[nH]c3cc4c(cc23)CC([C@H](C)c2ccccc2)C(=O)N4)ccn1 (stereo partly shown) [Compound 371] |
|  | < 250 | 50 to 250 | O=C1Nc2cc3[nH]nc(NC4CCOCC4)c3cc2CN1[C@@H]1CN(CC(F)(F)F)C[C@H]1c1ccccc1 [Compound 361] |
|  | < 250 | < 50 | Cc1cc(-c2n[nH]c3cc4[nH]c(=O)c([C@H](C)c5ccc(F)cc5)cc4cc23)ccn1 [Compound 288] |
|  |  | 50 to 250 | Cc1cc(-c2n[nH]c3cc4c(cc23)CN([C@@H]2CCCN(C3CCCC3)C2)C(=O)N4)ccn1 [Compound 215] |
|  |  | 50 to 250 | Cc1cc(-c2n[nH]c3cc4c(cc23)CN([C@@H]2CN(C)C[C@H]2c2ccc(F)cc2)C(=O)N4)cc(C)n1 (racemic) [Compound 305] |
| < 50 |  |  | Cc1cc(-c2n[nH]c3cc4c(cc23)CN([C@@H]2CCCN(c3cccc(Cl)c3)C2)C(=O)N4)ccn1 [Compound 174] |
|  |  | 50 to 250 | CC(c1ccccc1)c1cc2cc3c(-c4ccc(N5CCOCC5)nc4)n[nH]c3cc2[nH]c1=O (stereo not shown) [Compound 324] |
| < 50 |  |  | O=C1Nc2cc3[nH]nc(N4CCOCC4)c3cc2CN1Cc1cccc(Cl)c1 [Compound 78] |
| < 50 |  |  | Cc1cc(-c2n[nH]c3cc4c(cc23)CN([C@H](CO)c2cccc(Cl)c2)C(=O)N4)ccn1 [Compound 26] |
| < 50 |  |  | Cc1cc(-c2n[nH]c3cc4c(cc23)CN(Cc2ccc(Cl)cc2)C(=O)N4)ccn1 [Compound 14] |
| 50 to 250 |  |  | Cc1cc(-c2n[nH]c3cc4[nH]c(=O)c(Cc5ccc(F)cc5)cc4cc23)ccn1 [Compound 21] |
| 50 to 250 |  |  | Cc1cc(-c2n[nH]c3cc4c(cc23)CN(C2CN(CCC3CC3)C2)C(=O)N4)ccn1 [Compound 189] |
| 250 to 1000 |  |  | COc1ncc(-c2n[nH]c3cc4c(cc23)CN(CC2CCNCC2)C(=O)N4)cn1 [Compound 81] |
|  |  | 50 to 250 | Cc1cc(-c2n[nH]c3cc4c(cc23)CN([C@H]2CN(C)C[C@@H]2c2ccccc2)C(=O)N4)cc(C)n1 [Compound 307] |
| < 50 |  |  | Cc1cc(-c2n[nH]c3cc4c(cc23)CN([C@@H]2CCN(Cc3ccccc3)C2)C(=O)N4)ccn1 [Compound 146] |
|  |  | 250 to 1000 | COc1ccc(-c2n[nH]c3cc4c(cc23)CN([C@H]2CCCN(Cc3ccc(F)cc3F)C2)C(=O)N4)cn1 [Compound 369] |
| 50 to 250 |  |  | Cc1cc(-c2n[nH]c3cc4c(cc23)CN(C2CCNCC2)C(=O)N4)ccn1 [Compound 34] |
| 50 to 250 |  |  | Cc1cc(-c2n[nH]c3cc4c(cc23)CN([C@@H]2CCCN(Cc3cc(C(C)(C)C)no3)C2)C(=O)N4)ccn1 [Compound 186] |
| 50 to 250 |  |  | Cc1cc(-c2n[nH]c3cc4c(cc23)CN(CCN(C)C)C(=O)N4)ccn1 [Compound 46] |

| IC50 (ERK2 enzyme; In vitro ERK2 enzyme) [nM] | IC50 [1] [nM] | IC50 (ERK2 enzyme; [2]) [nM] | Structure (SMILES) |
| --- | --- | --- | --- |
| < 50 |  |  | COc1ncc(-c2n[nH]c3cc4c(cc23)CN([C@@H]2CCCN(Cc3ccccc3F)C2)C(=O)N4)cn1 [Compound 101] |
|  |  | < 50 | Cc1cc(-c2n[nH]c3cc4[nH]c(=O)c(C(O)c5ccccc5)cc4cc23)ccn1 (stereo not shown) [Compound 221] |
|  |  | < 50 | Cc1cc(-c2n[nH]c3cc4c(cc23)CN([C@@H]2CCCN(Cc3ccc(C)s3)C2)C(=O)N4)ccn1 [Compound 245] |
|  |  | < 50 | O=C1Nc2cc3[nH]nc(-c4ccc(N5CCOCC5)nc4)c3cc2CN1Cc1cccc(Cl)c1 [Compound 231] |
| 50 to 250 |  |  | Cc1cc(-c2n[nH]c3cc4c(cc23)CN([C@@H]2CCCN(CC3(C)CC3)C2)C(=O)N4)ccn1 [Compound 182] |
|  |  | < 50 | Cc1cc(-c2n[nH]c3cc4c(cc23)CN(CC2CCOCC2)C(=O)N4)ccn1 [Compound 211] |
| < 50 |  |  | COc1ncc(-c2n[nH]c3cc4c(cc23)CN(Cc2cccc(C#N)c2)C(=O)N4)cn1 [Compound 125] |
|  |  | 50 to 250 | Cc1cc(-c2n[nH]c3cc4c(cc23)CN([C@@H]2CN(CC(F)(F)F)C[C@H]2c2ccccc2)C(=O)N4)cc(C)n1 [Compound 242] |
|  |  | < 50 | Cc1cc(-c2n[nH]c3cc4c(cc23)CN(CC2CCCC2)C(=O)N4)ccn1 [Compound 212] |
|  |  | < 50 | Cc1cc(-c2n[nH]c3cc4[nH]c(=O)c(C5CCCN(Cc6ccccc6)C5)cc4cc23)ccn1 (stereo not shown) [Compound 332] |
|  |  | < 50 | COc1ncc(-c2n[nH]c3cc4c(cc23)CN([C@@H]2CCCN(Cc3ccc(F)cc3F)C2)C(=O)N4)cn1 [Compound 280] |
| < 50 |  |  | COc1ncc(-c2n[nH]c3cc4c(cc23)CN(Cc2cccc(C(F)(F)F)c2)C(=O)N4)cn1 [Compound 119] |
| < 50 |  |  | COc1ncc(-c2n[nH]c3cc4c(cc23)CN(CCc2cccc(Cl)c2)C(=O)N4)cn1 [Compound 86] |
|  |  | < 50 | COc1ccc(-c2n[nH]c3cc4c(cc23)CN([C@@H]2CN(CC(F)(F)F)C[C@H]2c2ccccc2)C(=O)N4)cn1 [Compound 374] |
| < 50 |  |  | Cc1cc(-c2n[nH]c3cc4c(cc23)CN(Cc2cccc(C#N)c2)C(=O)N4)ccn1 [Compound 55] |
| < 50 |  |  | COc1ncc(-c2n[nH]c3cc4c(cc23)CN(CCc2ccc(F)cc2)C(=O)N4)cn1 [Compound 80] |
|  |  | < 50 | Cc1cc(-c2n[nH]c3cc4c(cc23)CN(C(C)c2nccs2)C(=O)N4)ccn1 (stereo not shown) [Compound 234] |
|  |  | < 50 | Cc1cc(-c2n[nH]c3cc4c(cc23)CN([C@@H]2CN(C)C[C@H]2c2ccccc2F)C(=O)N4)cc(C)n1 (racemic) [Compound 306] |
|  |  | 50 to 250 | Cc1cc(-c2n[nH]c3cc4c(cc23)CN([C@@H]2CN(CC(F)(F)F)C[C@H]2C2CC2)C(=O)N4)ccn1 (mixture of isomers) [Compound 319] |
| < 50 |  |  | COc1ncc(-c2n[nH]c3cc4c(cc23)CN([C@@H]2CCCN(Cc3c(F)cccc3F)C2)C(=O)N4)cn1 [Compound 102] |

| IC50 (ERK2 enzyme; In vitro ERK2 enzyme) [nM] | IC50 [1] [nM] | IC50 (ERK2 enzyme; [2]) [nM] | Structure (SMILES) |
| --- | --- | --- | --- |
| 50 to 250 |  |  | Cc1cc(-c2n[nH]c3cc4c(cc23)CN([C@@H]2CCCN(CC3CC3)C2)C(=O)N4)ccn1 [Compound 62] |
| < 50 |  |  | Cc1cc(-c2n[nH]c3cc4c(cc23)CN([C@@H]2CCCN(Cc3c(F)cccc3F)C2)C(=O)N4)ccn1 [Compound 143] |
| < 50 |  |  | COc1ncc(-c2n[nH]c3cc4c(cc23)CN(Cc2cccc(Cl)c2)C(=O)N4)cn1 [Compound 68] |
|  |  | 50 to 250 | Cn1nccc1-c1n[nH]c2cc3c(cc12)CN(Cc1cccc(Cl)c1)C(=O)N3 [Compound 235] |
|  |  | < 50 | Cc1cc(-c2n[nH]c3cc4c(cc23)CN(Cc2ccc(C(F)(F)F)cc2)C(=O)N4)cc(C)n1 [Compound 233] |
|  |  | < 50 | Cc1cc(-c2n[nH]c3cc4c(cc23)CN([C@@H]2CN(CC(F)(F)F)C[C@H]2c2cccs2)C(=O)N4)ccn1 (mixture of isomers) [Compound 321] |
| < 50 |  |  | Cc1cc(-c2n[nH]c3cc4c(cc23)CN([C@H](C)c2ccc(C#N)cc2)C(=O)N4)ccn1 [Compound 23] |
| < 50 |  |  | Cc1cc(-c2n[nH]c3cc4c(cc23)CN([C@@H]2CCCN(Cc3ncccc3C)C2)C(=O)N4)ccn1 [Compound 168] |
|  |  | < 50 | Cc1cc(-c2n[nH]c3cc4c(cc23)CN([C@@H]2CN(CC(F)(F)F)C[C@H]2C)C(=O)N4)ccn1 (racemic) [Compound 302] |
|  |  | < 50 | Cc1cc(-c2n[nH]c3cc4c(cc23)CN([C@H]2CCN(CC(F)(F)F)C2)C(=O)N4)cc(C)n1 [Compound 310] |
| 50 to 250 |  |  | Cc1cccc(-c2n[nH]c3cc4c(cc23)CN(Cc2cccc(Cl)c2)C(=O)N4)n1 [Compound 108] |
|  |  | 50 to 250 | Cc1cc(-c2n[nH]c3cc4c(cc23)CN([C@H]2CCCN(CC(F)(F)F)C2)C(=O)N4)ccn1 [Compound 309] |
| < 50 |  |  | O=C1Nc2cc3[nH]nc(-c4ccnnc4)c3cc2CN1[C@@H]1CCCN(Cc2ccccc2F)C1 [Compound 121] |
|  |  | < 50 | CCN1C[C@@H](N2Cc3cc4c(-c5ccnc(C)c5)n[nH]c4cc3NC2=O)[C@H](c2ccccc2)C1 (racemic) [Compound 278] |
| < 50 |  |  | Cc1cc(-c2n[nH]c3cc4c(cc23)CN(Cc2cccc(Cl)c2)C(=O)N4)ccn1 [Compound 4] |
| 50 to 250 |  |  | COc1ccc(-c2n[nH]c3cc4c(cc23)CN([C@H](C)c2cccc(Cl)c2)C(=O)N4)cn1 [Compound 74] |
|  |  | 250 to 1000 | Cc1cc(-c2n[nH]c3cc4c(cc23)CN([C@@H]2CN(CC(F)(F)F)C[C@H]2C(C)(C)C)C(=O)N4)ccn1 [Compound 329] |
| < 50 |  |  | COc1cccc(F)c1CN1CC[C@@H](N2Cc3cc4c(-c5ccnc(C)c5)n[nH]c4cc3NC2=O)C1 [Compound 162] |
|  |  | < 50 | COc1ncc(-c2n[nH]c3cc4[nH]c(=O)c(C5CCCN(Cc6ccccc6)C5)cc4cc23)cn1 (stereo not shown) [Compound 364] |
|  |  | < 50 | Cc1cc(-c2n[nH]c3cc4c(cc23)CN([C@@H]2CN(CC(F)(F)F)C[C@H]2c2ccccc2)C(=O)N4)cc(C)n1 [Compound 339] |
